According to ChEMBL document CHEMBL1201862, “PubChem BioAssay data set” (2004):
Calls of active or inactive are those of the source.

Columns and labels:
[1] = target: T1, Voltage-gated N-type calcium channel alpha-1B subunit/Amyloid beta A4 precursor protein-binding family A member 1 (Homo sapiens, UniProt Q00975+Q02410); format: protein assay
[2] = target: T1, Voltage-gated N-type calcium channel alpha-1B subunit/Amyloid beta A4 precursor protein-binding family A member 1; format: protein assay; remark: listed apart in the source
[3] = target: T2, Rac GTPase-activating protein 1 (Homo sapiens, UniProt Q9H0H5); experiment: blockers of MgcRacGAP-driven Rac1 GTP hydrolysis – biochemical, ADP Hunter fluorescence, primary and confirmatory, confirmation (AID 624330); format: functional
T2 sequence (Q9H0H5 whole entry): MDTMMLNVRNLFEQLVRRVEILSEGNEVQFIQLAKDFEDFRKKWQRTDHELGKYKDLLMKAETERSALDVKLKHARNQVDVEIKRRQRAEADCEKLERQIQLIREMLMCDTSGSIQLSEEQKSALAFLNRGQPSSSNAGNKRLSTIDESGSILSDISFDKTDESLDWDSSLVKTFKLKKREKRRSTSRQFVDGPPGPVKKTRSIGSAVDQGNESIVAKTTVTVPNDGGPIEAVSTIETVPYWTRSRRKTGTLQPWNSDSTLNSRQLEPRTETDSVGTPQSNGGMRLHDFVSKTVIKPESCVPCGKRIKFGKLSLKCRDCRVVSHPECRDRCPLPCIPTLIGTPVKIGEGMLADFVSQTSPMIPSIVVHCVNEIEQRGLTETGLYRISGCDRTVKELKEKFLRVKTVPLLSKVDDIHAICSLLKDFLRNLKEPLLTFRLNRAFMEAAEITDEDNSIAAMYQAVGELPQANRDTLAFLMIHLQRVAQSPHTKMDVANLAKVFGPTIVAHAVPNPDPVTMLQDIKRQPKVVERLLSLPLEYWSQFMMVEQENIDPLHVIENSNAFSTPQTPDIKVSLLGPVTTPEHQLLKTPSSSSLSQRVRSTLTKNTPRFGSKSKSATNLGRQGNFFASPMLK

[4] = target: G-protein coupled receptor 35 (Homo sapiens, UniProt Q9HC97); experiment: inhibition of zaprinast-stimulated GPR35 beta-arrestin translocation – imaging, U2OS, beta-arrestin-GFP, zaprinast agonist, primary screen (AID 2058); format: functional;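 note: antagonist potency meaning inhibition of agonist-induced arrestin redistribution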
Cytochrome P450 1A2 = target: T3, Cytochrome P450 1A2 (Homo sapiens, UniProt P05177);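 note: PubChem cytochrome P450 panel assay, CYP1A2 panel member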
T3 sequence (P05177 whole entry): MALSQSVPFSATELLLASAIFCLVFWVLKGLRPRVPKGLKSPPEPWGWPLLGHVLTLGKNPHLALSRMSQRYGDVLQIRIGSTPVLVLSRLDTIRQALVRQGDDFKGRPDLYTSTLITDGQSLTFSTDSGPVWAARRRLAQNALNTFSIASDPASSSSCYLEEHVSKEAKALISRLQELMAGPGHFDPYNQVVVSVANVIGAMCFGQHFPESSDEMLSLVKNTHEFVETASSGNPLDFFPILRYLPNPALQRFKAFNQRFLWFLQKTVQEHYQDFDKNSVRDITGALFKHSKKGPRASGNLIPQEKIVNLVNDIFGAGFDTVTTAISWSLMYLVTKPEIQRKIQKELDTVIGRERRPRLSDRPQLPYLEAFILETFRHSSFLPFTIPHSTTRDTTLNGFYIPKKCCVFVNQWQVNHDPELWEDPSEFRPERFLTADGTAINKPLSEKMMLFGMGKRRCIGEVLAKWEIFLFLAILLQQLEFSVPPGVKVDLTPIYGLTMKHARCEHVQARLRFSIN

Cytochrome P450 2D6 = Cytochrome P450 2D6 (Homo sapiens, UniProt P10635);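 note: CYP2D6 member of a cytochrome P450 panel assay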
Cytochrome P450 3A4 = Cytochrome P450 3A4 (Homo sapiens, UniProt P08684);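 note: CYP3A4 tested as one member of a cytochrome P450 panel screen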
Cytochrome P450 2C9 = Cytochrome P450 2C9 (Homo sapiens, UniProt P11712)
[5] = target: G-protein coupled receptor 55 (Homo sapiens, UniProt Q9Y2T6); experiment: inhibition of LPI-stimulated GPR55 beta-arrestin translocation – imaging, U2OS, beta-arrestin-GFP, LPI agonist, primary screen (AID 2013); format: functional;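 note: antagonist potency measured as reduced agonist-driven arrestin aggregation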
Chain of G-protein coupled receptor 55 (Q9Y2T6 whole entry): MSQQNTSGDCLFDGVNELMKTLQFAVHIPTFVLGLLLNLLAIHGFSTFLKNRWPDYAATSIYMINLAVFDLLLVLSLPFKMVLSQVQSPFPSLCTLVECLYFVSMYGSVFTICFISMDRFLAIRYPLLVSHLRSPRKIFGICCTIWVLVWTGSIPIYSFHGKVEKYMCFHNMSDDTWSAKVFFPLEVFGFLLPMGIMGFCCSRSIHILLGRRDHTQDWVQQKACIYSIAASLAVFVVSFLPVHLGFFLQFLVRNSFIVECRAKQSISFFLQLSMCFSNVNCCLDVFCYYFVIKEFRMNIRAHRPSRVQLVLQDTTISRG

[6] = target: Polyadenylate-binding protein 1 (Homo sapiens, UniProt P11940); experiment: PABP inhibition in translation initiation, SAR follow-up (AID 435018); format: functional
Chain of Polyadenylate-binding protein 1 (P11940 whole entry): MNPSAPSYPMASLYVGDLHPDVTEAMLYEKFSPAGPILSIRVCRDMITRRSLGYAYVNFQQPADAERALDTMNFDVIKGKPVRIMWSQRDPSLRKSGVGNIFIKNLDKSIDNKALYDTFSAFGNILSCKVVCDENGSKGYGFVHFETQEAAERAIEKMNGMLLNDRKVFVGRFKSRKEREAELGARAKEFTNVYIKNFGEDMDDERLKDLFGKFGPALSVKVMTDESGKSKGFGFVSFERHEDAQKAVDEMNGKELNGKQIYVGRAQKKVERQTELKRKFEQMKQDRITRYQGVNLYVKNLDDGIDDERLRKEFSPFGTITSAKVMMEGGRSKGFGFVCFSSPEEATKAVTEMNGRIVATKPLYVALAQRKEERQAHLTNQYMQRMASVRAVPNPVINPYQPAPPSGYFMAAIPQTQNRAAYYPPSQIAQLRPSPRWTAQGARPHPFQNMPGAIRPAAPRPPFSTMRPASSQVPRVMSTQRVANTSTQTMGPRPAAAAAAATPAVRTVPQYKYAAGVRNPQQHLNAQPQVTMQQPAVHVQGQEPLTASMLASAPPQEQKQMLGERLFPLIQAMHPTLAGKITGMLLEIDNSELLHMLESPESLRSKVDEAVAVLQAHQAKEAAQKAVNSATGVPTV

[7] = target: Eukaryotic translation initiation factor 4H (Homo sapiens, UniProt Q15056); experiment: inhibitors of translation initiation factor eIF4H – SAR follow-up (AID 435011); format: functional
[8] = A Cell Based Secondary Assay To Explore Cytotoxicity of Compounds that Sensitize Mycobacterium Tuberculosis to Beta-Lactam Antibiotics.; format: functional
SUMO-activating enzyme = SUMO-activating enzyme (Homo sapiens, UniProt Q9UBT2); experiment: blockers of UBC9-mediated SUMO conjugation – biochemical, AlphaScreen, SUMOylation inhibitor project, confirmation (AID 2018); format: functional
[9] = viability of PTEN-deleted HCT116 cells – cell-based, HCT116 PTEN knockout, dose response (AID 1047); format: functional;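 note: HCT116 colon tumor cells with PTEN knocked out; cells exposed to compound for 60 hours before readout; potency for loss of cell viability measured by luminescence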
[10] = viability of HCT116 lacking mutant beta-catenin – cell-based, human colon tumor, dose response (AID 1045); format: functional;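 note: HCT116 colon tumor cells with beta catenin knocked out; cells exposed to compound for 60 hours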
[11] = target: T4, Calpain-2 catalytic subunit (Sus scrofa, UniProt P43367); experiment: m-calpain protease blockers, concentration series – biochemical, fluorogenic peptide substrate, dose response (AID 1420); format: functional
T4 sequence (P43367 whole entry): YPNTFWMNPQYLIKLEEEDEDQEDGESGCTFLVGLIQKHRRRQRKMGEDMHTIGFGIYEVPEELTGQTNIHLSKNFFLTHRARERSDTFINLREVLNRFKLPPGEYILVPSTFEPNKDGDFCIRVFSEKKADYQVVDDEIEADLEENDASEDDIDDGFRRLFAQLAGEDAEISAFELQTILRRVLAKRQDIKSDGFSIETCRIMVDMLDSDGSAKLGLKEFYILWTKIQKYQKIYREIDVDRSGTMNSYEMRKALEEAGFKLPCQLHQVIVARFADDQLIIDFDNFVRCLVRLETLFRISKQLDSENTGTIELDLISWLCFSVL

Trypsin = Trypsin (Sus scrofa, UniProt P00761); experiment: trypsin protease activity blockade – biochemical, quenched peptide fluorescence, cherry-pick, selectivity assay for Rce1 protease inhibitor project, dose response (AID 488789)
CAAX prenyl protease 2 = target: T5, CAAX prenyl protease 2 (Homo sapiens, UniProt Q9Y256); experiment: inhibition of Ras-converting CAAX protease Rce1 – biochemical, yeast membranes, quenched-peptide fluorescence, cherry-pick, dose response (AID 588849)
T5 sequence (Q9Y256 whole entry): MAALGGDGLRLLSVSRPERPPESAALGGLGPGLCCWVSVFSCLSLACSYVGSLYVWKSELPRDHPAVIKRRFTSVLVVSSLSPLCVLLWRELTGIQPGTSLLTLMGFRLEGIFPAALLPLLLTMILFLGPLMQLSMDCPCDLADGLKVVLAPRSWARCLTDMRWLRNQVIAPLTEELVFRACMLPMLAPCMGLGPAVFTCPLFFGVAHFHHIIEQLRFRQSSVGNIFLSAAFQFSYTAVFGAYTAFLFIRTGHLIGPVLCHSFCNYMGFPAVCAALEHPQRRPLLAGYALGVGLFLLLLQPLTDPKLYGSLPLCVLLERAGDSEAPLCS

[12] = viability of uninfected HEp-2 cells – cell-based, HTS, cytotoxicity control for RSV inhibitor project, dose response (AID 2410); format: functional; details: human respiratory syncytial virus
[13] = target: T6, Type-1 angiotensin II receptor (Homo sapiens, UniProt P30556); experiment: agonist activity at AGTR1 – cell-based, uHTS hits, selectivity assay for APJ receptor agonist project, dose response (AID 488865); format: functional;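 note: beta-arrestin recruitment to AT1 measured by enzyme fragment complementation luminescence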
T6 sequence (P30556 whole entry): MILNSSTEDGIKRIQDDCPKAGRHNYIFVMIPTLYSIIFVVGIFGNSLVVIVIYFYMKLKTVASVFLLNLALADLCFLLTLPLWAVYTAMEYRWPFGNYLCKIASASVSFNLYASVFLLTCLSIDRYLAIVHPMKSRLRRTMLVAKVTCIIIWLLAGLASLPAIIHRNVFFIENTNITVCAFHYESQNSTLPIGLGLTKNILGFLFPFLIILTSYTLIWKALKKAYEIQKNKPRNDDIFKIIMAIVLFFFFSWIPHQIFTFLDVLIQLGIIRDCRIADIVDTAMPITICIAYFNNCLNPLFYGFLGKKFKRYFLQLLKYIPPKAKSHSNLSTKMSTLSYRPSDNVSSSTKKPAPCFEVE

Bcl-2-related protein A1 = target: T7, Bcl-2-related protein A1 (Mus musculus, UniProt Q07440); format: functional;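 note: confirmatory dose–response counterscreen on Bfl-1, used to check hits from a UBC13 polyubiquitin inhibitor campaign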
T7 sequence (Q07440 whole entry): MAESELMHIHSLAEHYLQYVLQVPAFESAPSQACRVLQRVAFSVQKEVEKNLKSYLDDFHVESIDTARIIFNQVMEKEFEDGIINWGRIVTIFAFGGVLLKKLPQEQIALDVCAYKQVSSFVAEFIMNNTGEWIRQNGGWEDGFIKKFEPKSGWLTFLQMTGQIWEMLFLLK

[14] = target: T8, Ubiquitin-conjugating enzyme E2 N (Homo sapiens, UniProt P61088); format: functional
T8 sequence (P61088 whole entry): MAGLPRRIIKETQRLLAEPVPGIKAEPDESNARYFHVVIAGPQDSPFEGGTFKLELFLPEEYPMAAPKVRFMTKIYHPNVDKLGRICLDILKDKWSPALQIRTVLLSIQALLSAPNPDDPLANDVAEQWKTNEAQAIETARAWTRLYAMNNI

[15] = target: T8, Ubiquitin-conjugating enzyme E2 N; format: functional; remark: listed apart in the source
Streptokinase A = target: T9, Streptokinase A (Streptococcus pyogenes serotype M1, UniProt P10520); experiment: viability-normalized secreted streptokinase activity reduction – plasminogen activation absorbance, OD405, dose response (AID 1914); format: functional, Streptococcus pyogenes M1 GAS;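 note: secreted streptokinase activity via plasminogen activation per viability signal from cell pellet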
T9 sequence (P10520 whole entry): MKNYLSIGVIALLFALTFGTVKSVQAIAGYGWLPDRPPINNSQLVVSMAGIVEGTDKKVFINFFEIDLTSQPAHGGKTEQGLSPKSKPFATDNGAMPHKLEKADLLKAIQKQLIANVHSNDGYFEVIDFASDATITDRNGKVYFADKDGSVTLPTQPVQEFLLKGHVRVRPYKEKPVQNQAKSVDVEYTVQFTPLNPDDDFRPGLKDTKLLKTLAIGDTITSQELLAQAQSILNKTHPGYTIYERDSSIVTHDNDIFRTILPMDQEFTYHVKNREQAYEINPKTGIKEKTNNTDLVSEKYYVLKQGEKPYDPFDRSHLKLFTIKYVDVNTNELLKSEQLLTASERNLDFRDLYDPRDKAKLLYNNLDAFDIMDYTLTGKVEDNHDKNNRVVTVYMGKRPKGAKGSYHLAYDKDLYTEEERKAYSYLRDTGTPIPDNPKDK

Streptococcus = experiment: GAS UMAA2166 growth inhibition – luminescence, BacTiterGlo, counter-screen for streptokinase expression inhibitor project, dose response (AID 1915); format: functional, organism-based;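 note: potency for reduction of bacterial viability or growth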
[16] = tested on: Streptococcus sp. 'group A'; experiment: Streptococcus pyogenes SK(-)GAS viability under kanamycin – luminescence, BacTiterGlo, confirmation, counter-screen for streptokinase expression inhibitor project, dose response (AID 1900); format: functional, organism-based
Hexokinase = Hexokinase (Trypanosoma brucei, UniProt Q38C41); experiment: Confirmation assay for inhibitors of Trypanosoma brucei hexokinase 1-Analogue-first series. [Related pubchem assays (depositor defined):AID1430, AID1632, AID2516, AID2560, AID2579, AID2600, AID449725, AID492951]; format: functional
Chain of Hexokinase (Q38C41 whole entry): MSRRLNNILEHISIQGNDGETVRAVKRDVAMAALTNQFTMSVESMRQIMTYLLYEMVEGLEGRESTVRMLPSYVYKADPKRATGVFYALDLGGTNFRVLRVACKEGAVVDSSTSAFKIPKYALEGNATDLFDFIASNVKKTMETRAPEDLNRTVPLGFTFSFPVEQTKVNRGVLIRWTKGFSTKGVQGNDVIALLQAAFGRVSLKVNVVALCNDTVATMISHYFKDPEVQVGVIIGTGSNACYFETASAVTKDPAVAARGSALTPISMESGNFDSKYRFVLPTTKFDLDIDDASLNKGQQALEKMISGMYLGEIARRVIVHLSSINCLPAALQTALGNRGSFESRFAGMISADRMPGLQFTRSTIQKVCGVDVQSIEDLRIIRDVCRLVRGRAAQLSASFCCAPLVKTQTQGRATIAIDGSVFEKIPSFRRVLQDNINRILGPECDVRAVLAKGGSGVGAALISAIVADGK

[17] = viability loss in HeLa cells – cytotoxicity control for MgcRacGAP inhibitor project, dose response (AID 624300); format: functional
[18] = target: Glucose-6-phosphate 1-dehydrogenase (Homo sapiens, UniProt P11413); experiment: inhibition of Homo sapiens G6PD, dose series – biochemical, fluorescence, selectivity assay for P. falciparum G6PD inhibitor project, dose response (AID 504792); format: functional

T1 sequence (Q00975 whole entry): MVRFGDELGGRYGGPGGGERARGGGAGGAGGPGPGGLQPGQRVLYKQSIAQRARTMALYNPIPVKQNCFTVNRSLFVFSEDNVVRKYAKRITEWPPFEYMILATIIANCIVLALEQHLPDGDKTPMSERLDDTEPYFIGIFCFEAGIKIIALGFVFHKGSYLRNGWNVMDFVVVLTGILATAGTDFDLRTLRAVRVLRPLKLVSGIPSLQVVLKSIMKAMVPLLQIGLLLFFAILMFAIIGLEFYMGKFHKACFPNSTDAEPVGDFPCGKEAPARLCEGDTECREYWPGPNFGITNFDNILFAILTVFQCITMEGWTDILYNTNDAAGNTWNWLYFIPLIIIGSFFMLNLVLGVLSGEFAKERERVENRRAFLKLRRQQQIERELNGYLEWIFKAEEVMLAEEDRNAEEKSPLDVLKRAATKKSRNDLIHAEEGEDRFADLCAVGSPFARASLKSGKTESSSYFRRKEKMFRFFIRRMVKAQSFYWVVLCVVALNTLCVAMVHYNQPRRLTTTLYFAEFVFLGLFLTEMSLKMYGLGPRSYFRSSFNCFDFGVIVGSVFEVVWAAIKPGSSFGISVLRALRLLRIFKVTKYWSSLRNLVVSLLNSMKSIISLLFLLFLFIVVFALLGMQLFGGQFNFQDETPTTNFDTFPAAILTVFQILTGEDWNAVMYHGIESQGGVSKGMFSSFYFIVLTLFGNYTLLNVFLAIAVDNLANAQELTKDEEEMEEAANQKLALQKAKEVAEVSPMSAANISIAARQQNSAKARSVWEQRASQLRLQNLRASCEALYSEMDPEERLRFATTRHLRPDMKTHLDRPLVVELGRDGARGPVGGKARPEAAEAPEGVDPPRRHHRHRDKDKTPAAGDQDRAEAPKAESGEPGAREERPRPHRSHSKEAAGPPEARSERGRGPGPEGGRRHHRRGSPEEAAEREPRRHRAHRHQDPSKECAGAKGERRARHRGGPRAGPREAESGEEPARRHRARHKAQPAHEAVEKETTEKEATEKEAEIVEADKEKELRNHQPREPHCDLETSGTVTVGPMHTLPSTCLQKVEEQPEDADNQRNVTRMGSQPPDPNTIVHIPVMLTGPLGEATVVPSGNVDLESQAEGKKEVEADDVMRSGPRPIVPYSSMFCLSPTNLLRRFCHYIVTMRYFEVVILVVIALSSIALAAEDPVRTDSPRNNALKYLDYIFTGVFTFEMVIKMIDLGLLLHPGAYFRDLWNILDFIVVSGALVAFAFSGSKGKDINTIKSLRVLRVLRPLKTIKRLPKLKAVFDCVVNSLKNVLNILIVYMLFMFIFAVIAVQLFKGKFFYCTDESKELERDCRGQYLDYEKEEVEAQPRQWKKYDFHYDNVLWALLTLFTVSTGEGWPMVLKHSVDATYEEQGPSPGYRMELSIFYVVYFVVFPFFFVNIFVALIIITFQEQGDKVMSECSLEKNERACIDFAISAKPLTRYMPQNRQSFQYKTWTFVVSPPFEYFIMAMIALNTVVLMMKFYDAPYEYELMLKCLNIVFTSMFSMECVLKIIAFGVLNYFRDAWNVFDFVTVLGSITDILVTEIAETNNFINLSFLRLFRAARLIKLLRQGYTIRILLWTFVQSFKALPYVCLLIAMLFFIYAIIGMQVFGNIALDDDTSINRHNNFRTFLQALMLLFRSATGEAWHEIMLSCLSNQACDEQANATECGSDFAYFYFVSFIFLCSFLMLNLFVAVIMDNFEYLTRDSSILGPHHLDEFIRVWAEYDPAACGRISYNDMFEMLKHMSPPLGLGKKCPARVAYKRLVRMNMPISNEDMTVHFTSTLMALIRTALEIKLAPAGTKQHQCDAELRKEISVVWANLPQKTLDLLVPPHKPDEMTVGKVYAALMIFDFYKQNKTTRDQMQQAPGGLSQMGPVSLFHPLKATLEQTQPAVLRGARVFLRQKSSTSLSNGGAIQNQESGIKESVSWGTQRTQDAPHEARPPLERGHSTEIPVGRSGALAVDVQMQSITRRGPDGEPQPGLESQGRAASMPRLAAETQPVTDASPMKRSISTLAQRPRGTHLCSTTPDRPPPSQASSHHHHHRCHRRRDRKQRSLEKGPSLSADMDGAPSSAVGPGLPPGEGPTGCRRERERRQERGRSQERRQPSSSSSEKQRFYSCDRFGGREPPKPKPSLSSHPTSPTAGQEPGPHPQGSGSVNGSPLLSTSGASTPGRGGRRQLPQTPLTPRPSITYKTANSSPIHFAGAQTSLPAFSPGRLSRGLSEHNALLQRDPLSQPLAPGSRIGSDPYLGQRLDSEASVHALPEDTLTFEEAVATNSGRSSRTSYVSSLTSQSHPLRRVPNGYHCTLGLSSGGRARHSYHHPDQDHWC
T1 sequence (Q02410 whole entry): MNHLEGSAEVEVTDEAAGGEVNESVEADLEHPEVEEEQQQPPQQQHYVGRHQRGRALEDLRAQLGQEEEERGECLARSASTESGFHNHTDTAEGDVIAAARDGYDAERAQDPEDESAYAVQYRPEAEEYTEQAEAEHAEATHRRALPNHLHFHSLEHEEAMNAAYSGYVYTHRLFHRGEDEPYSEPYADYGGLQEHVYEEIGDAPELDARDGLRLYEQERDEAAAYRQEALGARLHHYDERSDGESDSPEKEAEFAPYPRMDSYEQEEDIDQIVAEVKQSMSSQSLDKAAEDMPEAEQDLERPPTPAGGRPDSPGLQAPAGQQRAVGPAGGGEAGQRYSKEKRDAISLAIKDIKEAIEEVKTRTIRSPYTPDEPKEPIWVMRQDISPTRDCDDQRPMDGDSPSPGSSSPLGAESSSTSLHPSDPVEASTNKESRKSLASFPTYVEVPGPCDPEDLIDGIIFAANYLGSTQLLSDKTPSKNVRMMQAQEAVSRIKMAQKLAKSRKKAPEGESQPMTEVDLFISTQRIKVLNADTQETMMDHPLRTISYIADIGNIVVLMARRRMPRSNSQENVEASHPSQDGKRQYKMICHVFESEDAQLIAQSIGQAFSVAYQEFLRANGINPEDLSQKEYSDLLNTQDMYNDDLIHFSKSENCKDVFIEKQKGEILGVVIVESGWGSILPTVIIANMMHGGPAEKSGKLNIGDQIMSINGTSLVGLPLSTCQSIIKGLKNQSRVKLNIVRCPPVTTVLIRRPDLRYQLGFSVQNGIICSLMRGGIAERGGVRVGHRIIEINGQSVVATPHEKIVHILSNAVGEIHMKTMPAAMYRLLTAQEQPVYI

Cc1cccc(NC(=S)NCc2ccco2)n1
IC50 [1]: > 50 µM (inactive) | IC50 [2]: 6.94 µM (active)

N#C/C(=C/c1ccc(N2CCOCC2)o1)c1nc2ccccc2[nH]1
IC50 [3]: 20.4 µM (active) | IC50 [4]: 2.41 µM (active)

NC1=C(c2nc(-c3ccc(F)cc3)cs2)C(=O)CN1CCCN1CCOCC1
AC50 (Cytochrome P450 1A2): 15.8 µM (inconclusive) | AC50 (Cytochrome P450 2D6): 28.2 µM (inconclusive) | AC50 (Cytochrome P450 3A4): 10 µM (inconclusive) | AC50 (Cytochrome P450 2C9): 28.2 µM (inconclusive) | IC50 [5]: 9.02 µM (active)

O=C(CSc1ccc(-c2ccco2)nn1)NCc1ccccc1
IC50 [6]: > 100 µM (inactive) | IC50 [7]: 57 µM (active)

COc1ccc(N=C2SC(C(=O)Nc3ccc(F)cc3)CC(=O)N2C)cc1 (centres undefined)
IC50 [6]: > 100 µM (inactive) | IC50 [7]: > 100 µM (inactive)

O=C(Nc1nnc(-c2ccccc2SCc2ccccc2F)s1)Nc1ccccc1F
CC50 [8]: 29.5 µM (active) | IC50 (SUMO-activating enzyme): 41.1 µM (active) | EC50 [9]: 5.89 µM (active) | EC50 [10]: 5.32 µM (active) | IC50 [11]: > 50 µM (not active)

NC(=O)c1sc2nc(N3CCCCC3)c3c(c2c1N)CCCC3
AC50 (Trypsin): 3.58 µM (active) | AC50 (CAAX prenyl protease 2): 7.04 µM (active) | CC50 [12]: 15.6 µM (active)

CCOc1cc2[nH]c(=S)n(CCCC(=O)NCc3ccccn3)c(=O)c2cc1OCC
EC50 [13]: > 100 µM (inactive)

O=C(NCCCN1CCN(c2ccc(F)cc2)CC1)C1CCCN(c2ncnc3c2nc2n3CCCCC2)C1 (centres undefined)
IC50 (Bcl-2-related protein A1): > 20 µM (inactive) | IC50 [14]: 8.08 µM (active) | IC50 [15]: 3.64 µM (active)

c1ccc(-c2noc(-c3ccccc3-c3ccccc3)n2)cc1
EC50 (Streptokinase A): 21.5 µM (active) | EC50 (Streptococcus): > 150 µM (not active) | IC50 [5]: 6.09 µM (active) | EC50 [16]: 11.8 µM (active)

O=c1c2cc(F)ccc2sn1-c1ccccc1Cl
IC50 (Hexokinase): 2.33 µM (active) | IC50 [3]: 35 µM (active) | CC50 [17]: 71.9 µM (active) | IC50 [18]: 15.9 µM (active)

O=C(Nc1cc(Cl)ccc1C(=O)O)c1ccc(-c2cccs2)cc1
IC50 (Hexokinase): > 25 µM (inactive)
